Experimental findings from US8236789B2, “1-adamantyl azetidin-2-one derivatives and drugs containing same” (Kowa Company, Ltd., priority 2008, dated 2012) are described below.

Bounds are passed on as bounds.

Format in all cases: biochemical
The target in one test is T1, human 11β-HSD1 (Homo sapiens, UniProt P28845).
T1 construct: expressed in transfected cells
The test can be described thus: Enzyme inhibitory activity assay, lysate of HEK293 cells stably expressing human 11β-HSD1, cortisol by competitive ELISA. Conditions: Table 1; cell lysate, 100 nmol/L cortisone, NADPH, 37° C. 1 hour; read-out: in vitro assay (IC50 uM) h HSD1. How it is done: (§1) 1. Human 11β-HSD1-, Human 11β-HSD2- and Mouse 11β-HSD1-Gene Clonings and Establishment of Stably Expressing Cells
(§2) Human 11β-HSD1- and human 11β-HSD2-expressing vectors were transfected into human kidney-derived cell line, HEK293 cells, using a transfection reagent, jet PEI (Funakoshi). Mouse 11β-HSD1 was transfected to Chinese hamster ovary-derived cell line, CHO-K1 cells. Selection was conducted with 200-400 μg/mL of zeocine (Invitrogen) to provide stably expressing-cell clones. The stably expressing cells were suspended in buffer solution A (20 mmol/L Tris-HCl, pH 7.4, 250 mmol/L sucrose, 1 mmol/L EGTA, 1 mmol/L EDTA, 1 mmol/L MgCl2), sonicated, and then stored at −80° C.
(§3) 2. Assay of Enzyme Inhibitory Activity
(§4) An enzymatic reaction was conducted using a polystyrene 96-well plate. Each well was added with 1 μL of a test agent dissolved in DMSO and then diluted (0.003 to 3 mmol/L), and further added with 10 μL of cell lysate diluted to a concentration of 0.1 mg/mL to 0.4 mg/mL. Next, 90 μL of buffer solution A containing substrate (100 nmol/L cortisone or cortisol) and coenzyme (400 μmol/L NADPH or NAD+) was added and the mixture was incubated at 37° C. for 1 hour. The enzymatic reaction was stopped by treating at 95° C. for 3 minutes. Cortisol that was present in the reaction solution was determined by a competitive ELISA shown below.
(§5) Anti-rabbit IgG antibody (Chemi-con) diluted to 2 μg/mL with carbonate buffer solution (pH 9.6) was added in 100 μL each to a 96-well immuno plate (Nunc) and immobilized by an incubation at 4° C. overnight. […] After washed three times with buffer solution B containing 0.05% Tween 20, the plates were allowed to develop color by adding 100 μL, of color reagent, TMB (Moss). The color reaction was stopped by 25 μL of 1 mol/L sulfuric acid and the absorbance was determined at 450 nm with a microplate reader (Molecular Device, VersaMax).

The target of the next test is T2, mouse 11β-HSD1 (Mus musculus, UniProt P50172).
T2 construct: expressed in transfected cells
The test can be described thus: Enzyme inhibitory activity assay, lysate of CHO-K1 cells stably expressing mouse 11β-HSD1, cortisol by competitive ELISA. The following applies: Table 2; cell lysate, 100 nmol/L cortisone, NADPH, 37° C. 1 hour; read-out: in vitro assay (IC50 uM) m HSD1. The procedure: as §1, §2, §3, §4, §5
A general note: In an ELISA, binding on a coated surface is turned into a signal by an enzyme label.

In another test the target is T3, human 11β-HSD2 (Homo sapiens, UniProt P80365).
T3 construct: expressed in transfected cells
T3 sequence (P80365 1-405): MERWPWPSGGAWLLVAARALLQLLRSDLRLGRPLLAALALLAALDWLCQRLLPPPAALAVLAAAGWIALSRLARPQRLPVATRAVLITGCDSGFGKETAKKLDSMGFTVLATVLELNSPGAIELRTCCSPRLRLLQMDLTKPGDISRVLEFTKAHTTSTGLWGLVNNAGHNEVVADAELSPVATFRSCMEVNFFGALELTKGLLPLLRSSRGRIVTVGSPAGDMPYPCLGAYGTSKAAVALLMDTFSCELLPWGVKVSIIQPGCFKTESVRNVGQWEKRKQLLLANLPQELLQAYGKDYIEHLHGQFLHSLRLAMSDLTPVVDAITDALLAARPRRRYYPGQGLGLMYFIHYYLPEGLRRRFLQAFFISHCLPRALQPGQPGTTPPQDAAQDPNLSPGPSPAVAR
Kind of test: Enzyme inhibitory activity assay, lysate of HEK293 cells stably expressing human 11β-HSD2, cortisol by competitive ELISA. The following applies: Table 1; cell lysate, 100 nmol/L cortisol, NAD+, 37° C. 1 hour; read-out: in vitro assay (IC50 uM) h HSD2. How it is done: as §1
Human 11β-HSD1-, human 11β-HSD2-, and mouse 11β-HSD1-gene clonings were conducted using as a template a reverse transcription product of human-liver RNA, human-kidney RNA (CELL APPLICATIONS), and mouse-kidney RNA respectively, by means of PCR cloning with reference to nucleotide sequences of Genbank Accession Nos. NM_005525, NM_000196, and NM_008288. The obtained PCR products of about 0.9 kbp, 1.2 kbp, and 0.9 kbp were subcloned into an expression vector pcDNA3.1+/Zeo (Invitrogen).
as §2, §3, §4
Anti-rabbit IgG antibody (Chemi-con) diluted to 2 μg/mL with carbonate buffer solution (pH 9.6) was added in 100 μL each to a 96-well immuno plate (Nunc) and immobilized by an incubation at 4° C. overnight. 50 μL of enzymatic reaction solution was put onto the plates, and further, anti-cortisol antibody (Cosmo Bio) and HRP-labeled cortisol (Cosmo Bio), diluted with buffer solution B (25 mmol/L Tris-HCl pH 7.4, 137 mmol/L NaCl, 2.68 mmol/L KCl), were added in 50 μL respectively and incubated at 4° C. overnight. After washed three times with buffer solution B containing 0.05% Tween 20, the plates were allowed to develop color by adding 100 μL, of color reagent, TMB (Moss). The color reaction was stopped by 25 μL of 1 mol/L sulfuric acid and the absorbance was determined at 450 nm with a microplate reader (Molecular Device, VersaMax).
The values of human 11β-HSD1, human 11β-HSD2, and mouse 11β-HSD1 activities were subtracted from 100, and the resultant values were regarded as the respective 11βHSD inhibition rates of example compounds. […] The comparison of human 11β-HSD1 and human 11β-HSD2 inhibiting activities is shown in Table 1, and the comparison of human 11β-HSD1 and mouse 11β-HSD1 inhibiting activities is shown in Table 2.

T1 sequence (P28845 whole entry): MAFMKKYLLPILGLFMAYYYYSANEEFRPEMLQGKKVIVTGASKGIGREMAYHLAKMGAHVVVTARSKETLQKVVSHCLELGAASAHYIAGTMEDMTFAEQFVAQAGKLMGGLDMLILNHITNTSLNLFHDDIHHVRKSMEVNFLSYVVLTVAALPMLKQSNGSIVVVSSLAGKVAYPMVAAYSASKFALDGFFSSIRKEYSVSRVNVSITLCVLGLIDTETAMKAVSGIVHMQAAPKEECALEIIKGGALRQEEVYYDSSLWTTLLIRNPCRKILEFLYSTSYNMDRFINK
T2 sequence (P50172 whole entry): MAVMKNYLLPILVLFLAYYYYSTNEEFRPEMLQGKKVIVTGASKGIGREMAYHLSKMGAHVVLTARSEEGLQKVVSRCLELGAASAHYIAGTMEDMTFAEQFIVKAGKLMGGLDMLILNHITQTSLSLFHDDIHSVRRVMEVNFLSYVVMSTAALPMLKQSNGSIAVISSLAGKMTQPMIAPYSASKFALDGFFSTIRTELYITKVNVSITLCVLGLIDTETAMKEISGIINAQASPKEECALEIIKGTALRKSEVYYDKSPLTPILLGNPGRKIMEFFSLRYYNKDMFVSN

The term IC50 denotes the midpoint of a concentration-inhibition curve. Take `CC1(C)C(=O)N(C2C3CC4CC(C3)CC2C4)C1c1ccccc1Cl` (stereo not shown) [Example 44, 1-(adamantan-2-yl)-3,3-dimethyl-4-(2-chlorophenyl)azetidin-2-one]: the values for the IC50 at human 11β-HSD1, at mouse 11β-HSD1 and at human 11β-HSD2 were 0.0055 µM, 0.076 µM and 3 to 30 µM, respectively.
For `CC1(C)C(=O)N(C2C3CC4CC(C3)CC2C4)C1c1cccc2c1OCCCC2` (stereo not shown) [Example 68, 1-(adamantan-2-yl)-3,3-dimethyl-4-(benzo[b]oxepan-9-yl)azetidin-2-one], in that order: 0.026 µM, 0.02 µM and 3 to 30 µM.
For `COc1ccc(C2N(C3C4CC5CC(C4)CC3C5)C(=O)C2(C)C)c(C)c1` (stereo not shown) [Example 56, 1-(adamantan-2-yl)-3,3-dimethyl-4-(4-methoxy-2-methylphenyl)azetidin-2-one], in that order: 0.0079 µM, 0.46 µM and over 30 µM.
For `CC1(C)C(=O)N(C2C3CC4CC(C3)CC2C4)C1C1(c2ccccc2)CC1` (stereo not shown) [Example 71, 1-(adamantan-2-yl)-3,3-dimethyl-4-(1-phenylcyclopropyl)azetidin-2-one], in that order: 0.059 µM, 0.0061 µM and 4.3 µM.
On to `CC1(C)C(=O)N(C2C3CC4CC(C3)CC2C4)C1c1ccccc1` (stereo not shown) [Example 1, 1-(adamantan-2-yl)-3,3-dimethyl-4-phenylazetidin-2-one], for which the values for the IC50 on human 11β-HSD1, at mouse 11β-HSD1 and at human 11β-HSD2 were 0.013 µM, 0.077 µM and 3 to 30 µM, respectively.
As for `COc1ccc(C2N(C3C4CC5CC(C4)CC3C5)C(=O)C2(C)C)cc1` (stereo not shown) [Example 23, 1-(adamantan-2-yl)-3,3-dimethyl-4-(4-methoxyphenyl)azetidin-2-one], the IC50 at human 11β-HSD1 is 0.01 µM; at human 11β-HSD2, over 30 µM.
For `CC1(C)C(=O)N(C2C3CC4CC(C3)CC2C4)C1c1ccc(F)c(F)c1` (stereo not shown) [Example 27, 1-(adamantan-2-yl)-3,3-dimethyl-4-(3,4-difluorophenyl)azetidin-2-one], in that order: 0.017 µM and 8.8 µM.
On to `CC(C)(C)c1ccc(C2N(C3C4CC5CC(C4)CC3C5)C(=O)C2(C)C)cc1` (stereo not shown) [Example 38, 1-(adamantan-2-yl)-3,3-dimethyl-4-(4-t-butylphenyl)azetidin-2-one], for which the IC50 at human 11β-HSD1 was 0.079 µM; on human 11β-HSD2, 3 to 30 µM.
As to `CC1(C)C(=O)N(C2C3CC4CC(C3)CC2C4)C1c1cccc(C(F)(F)F)c1Cl` (stereo not shown) [Example 30, 1-(adamantan-2-yl)-3,3-dimethyl-4-(2-chloro-3-trifluoromethylphenyl)azetidin-2-one], the concentration for half-maximal inhibition (IC50) at human 11β-HSD1 came out at 0.016 µM; on mouse 11β-HSD1, 0.13 µM.
For `COC(=O)[C@]12CC3CC(C1)[C@@H](N1C(=O)C(C)(C)C1c1cccc4ccccc14)C(C3)C2` (stereo partly drawn) [Example 10, methyl trans-4-[2-(naphthalen-1-yl)-3,3-dimethyl-4-oxoazetidin-1-yl]-1-adamantane carboxylate], in that order: 0.019 µM and 0.034 µM.
For `COc1cccc(C2N(C3C4CC5CC(C4)CC3C5)C(=O)C2(C)C)c1` (stereo not shown) [Example 34, 1-(adamantan-2-yl)-3,3-dimethyl-4-(3-methoxyphenyl)azetidin-2-one], in that order: 0.012 µM and 0.031 µM.
For `CC1(C)C(=O)N(C2C3CC4CC(C3)CC2C4)C1c1cccc(Cl)c1F` (stereo not shown) [Example 25, 1-(adamantan-2-yl)-3,3-dimethyl-4-(3-chloro-2-fluorophenyl)azetidin-2-one], in that order: 0.02 µM and 0.18 µM.
Take `CC1(C)C(=O)N(C2C3CC4CC(C3)CC2C4)C1c1cccc(Cl)c1` (stereo not shown) [Example 53, 1-(adamantan-2-yl)-3,3-dimethyl-4-(3-chlorophenyl)azetidin-2-one]: the IC50 is 0.0039 µM at human 11β-HSD1 and 0.025 µM at mouse 11β-HSD1.
Regarding `CC(C)c1ccc(C2N(C3C4CC5CC(C4)CC3C5)C(=O)C2(C)C)cc1` (stereo not shown) [Example 37, 1-(adamantan-2-yl)-3,3-dimethyl-4-(4-isopropylphenyl)azetidin-2-one], the IC50 at human 11β-HSD1 came out at 0.026 µM; on human 11β-HSD2, 14 µM.
Turning to `CC1(C)C(=O)N([C@H]2C3CC4CC2C[C@](C(N)=O)(C4)C3)C1c1cccc2cccnc12` (stereo partly drawn) [Example 20, trans-4-[2-(quinolin-8-yl)-3,3-dimethyl-4-oxoazetidin-1-yl]-1-adamantane carboxyamide], the IC50 at human 11β-HSD1 came to 0.057 µM; at mouse 11β-HSD1, 0.053 µM.
In the case of `CC1(C)C(=O)N(C2C3CC4CC(C3)CC2C4)C1c1ccc(OC(F)(F)F)cc1` (stereo not shown) [Example 42, 1-(adamantan-2-yl)-3,3-dimethyl-4-(4-trifluoromethoxyphenyl)azetidin-2-one], the IC50 at human 11β-HSD1 was 0.006 µM; on mouse 11β-HSD1, 0.69 µM.
For `CC1(C)C(=O)N([C@H]2C3CC4CC2C[C@](C(=O)O)(C4)C3)C1c1cccc2ccccc12` (stereo partly drawn) [Example 11, trans-4-[2-(naphthalen-1-yl)-3,3-dimethyl-4-oxoazetidin-1-yl]-1-adamantane carboxylic acid], in that order: 0.26 µM and 0.42 µM.
For `CC1(C)C(=O)N([C@H]2C3CC4CC2C[C@](Cl)(C4)C3)C1c1cccc2ccccc12` (stereo partly drawn) [Example 5, trans-1-(5-chloroadamantan-2-yl)-3,3-dimethyl-4-(naphthalen-1-yl)azetidin-2-one], in that order: 0.88 µM and 0.66 µM.
For `CC1(C)C(=O)N(C2C3CC4CC(C3)CC2C4)C1c1cccc2c1OCC=CC2` (stereo not shown) [Example 67, 1-(adamantan-2-yl)-4-(2,5-dihydrobenzo[b]oxepin-9-yl)-3,3-dimethylazetidin-2-one], in that order: 0.065 µM and 0.029 µM.
`CC1(C)C(=O)N([C@H]2C3CC4CC2C[C@](F)(C4)C3)C1c1cccc(Cl)c1Cl` (stereo partly drawn) [Example 52, trans-1-(5-fluoroadamantan-2-yl)-3,3-dimethyl-4-(2,3-dichlorophenyl)azetidin-2-one]: the IC50 at human 11β-HSD1 stood at 0.0046 µM; on mouse 11β-HSD1, 0.027 µM.
For `COC(=O)[C@]12CC3CC(C1)[C@@H](N1C(=O)C(C)(C)C1c1cccc(Cl)c1Cl)C(C3)C2` (stereo partly drawn) [Example 7, methyl trans-4-[2-(2,3-dichlorophenyl)-3,3-dimethyl-4-oxoazetidin-1-yl]-1-adamantane carboxylate], in that order: 0.013 µM and 0.25 µM.
For `CC1(C)C(=O)N(C2C3CC4CC(C3)CC2C4)C1c1cc(Cl)cc(Cl)c1` (stereo not shown) [Example 31, 1-(adamantan-2-yl)-3,3-dimethyl-4-(3,5-dichlorophenyl)azetidin-2-one], in that order: 0.015 µM and 0.076 µM.
